Reference: ChEMBL document CHEMBL3407349, “The discovery of Polo-like kinase 4 inhibitors: identification of (1R,2S).2-(3-((E).4-(((cis).2,6-dimethylmorpholino)methyl)styryl). 1H.indazol-6-yl)-5'-methoxyspiro[cyclopropane-1,3'-indolin]-2'-one (CFI-400945) as a potent, orally active antitumor agent” (J Med Chem, 2015)

Legend:
[1] = Growth inhibition of human HMEC cells after 5 days by SRB assay; type: cell-based; settings: HMEC cells
[2] = Cmax in athymic CD1 nude mouse at 25 mg/kg, po by LC/MS/MS analysis; type: ADME, organism-based; parameters: dose 25 mg/kg, route oral; settings: in vivo
HCC1954 = assay: Growth inhibition of human HCC1954 cells after 5 days by SRB assay; type: functional
[3] = Half life in human liver microsomes
[4] = Half life in mouse liver microsomes
Cytochrome P450 2C19 = Cytochrome P450 2C19 (Homo sapiens, UniProt P33261); assay: Inhibition of CYP2C19 (unknown origin) by fluorescence assay
Chain of Cytochrome P450 2C19 (P33261 whole entry): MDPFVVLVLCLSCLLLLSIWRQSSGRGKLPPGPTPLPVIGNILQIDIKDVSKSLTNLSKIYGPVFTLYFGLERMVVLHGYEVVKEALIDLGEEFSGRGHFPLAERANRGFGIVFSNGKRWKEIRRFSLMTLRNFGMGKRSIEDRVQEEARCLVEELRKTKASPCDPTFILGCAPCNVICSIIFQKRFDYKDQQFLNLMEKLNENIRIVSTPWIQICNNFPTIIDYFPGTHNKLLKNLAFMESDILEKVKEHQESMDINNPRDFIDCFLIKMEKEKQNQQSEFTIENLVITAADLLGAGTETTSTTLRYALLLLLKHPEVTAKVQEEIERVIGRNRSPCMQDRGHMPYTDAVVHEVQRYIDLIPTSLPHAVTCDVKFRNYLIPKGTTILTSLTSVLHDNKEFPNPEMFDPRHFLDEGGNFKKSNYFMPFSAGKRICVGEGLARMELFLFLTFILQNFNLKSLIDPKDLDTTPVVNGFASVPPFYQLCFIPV

Cytochrome P450 2D6 = Cytochrome P450 2D6 (Homo sapiens, UniProt P10635); assay: Inhibition of CYP2D6 (unknown origin) by fluorescence assay; type: ADME
Chain of Cytochrome P450 2D6 (P10635 whole entry): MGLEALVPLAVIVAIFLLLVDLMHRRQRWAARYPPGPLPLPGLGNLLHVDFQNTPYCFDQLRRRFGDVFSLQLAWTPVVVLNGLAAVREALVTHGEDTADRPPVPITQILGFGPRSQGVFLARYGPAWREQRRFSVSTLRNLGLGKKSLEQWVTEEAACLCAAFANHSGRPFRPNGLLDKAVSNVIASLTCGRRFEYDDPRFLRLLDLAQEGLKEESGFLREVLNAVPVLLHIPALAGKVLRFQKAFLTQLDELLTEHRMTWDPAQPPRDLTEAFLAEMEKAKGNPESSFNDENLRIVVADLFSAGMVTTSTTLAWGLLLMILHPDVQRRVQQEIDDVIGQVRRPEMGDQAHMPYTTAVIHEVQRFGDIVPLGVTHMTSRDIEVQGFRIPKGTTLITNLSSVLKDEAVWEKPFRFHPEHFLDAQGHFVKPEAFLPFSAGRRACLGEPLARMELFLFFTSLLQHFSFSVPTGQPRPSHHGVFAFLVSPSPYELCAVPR

MCF7 = assay: Growth inhibition of human MCF7 cells after 5 days by SRB assay; type: functional
MDA-MB-468 = assay: Growth inhibition of human MDA-MB-468 cells after 5 days by SRB assay; type: functional
Cytochrome P450 1A2 = molecular target: T1, Cytochrome P450 1A2 (Homo sapiens, UniProt P05177); assay: Inhibition of CYP1A2 (unknown origin) by fluorescence assay; type: ADME
T1 sequence (P05177 whole entry): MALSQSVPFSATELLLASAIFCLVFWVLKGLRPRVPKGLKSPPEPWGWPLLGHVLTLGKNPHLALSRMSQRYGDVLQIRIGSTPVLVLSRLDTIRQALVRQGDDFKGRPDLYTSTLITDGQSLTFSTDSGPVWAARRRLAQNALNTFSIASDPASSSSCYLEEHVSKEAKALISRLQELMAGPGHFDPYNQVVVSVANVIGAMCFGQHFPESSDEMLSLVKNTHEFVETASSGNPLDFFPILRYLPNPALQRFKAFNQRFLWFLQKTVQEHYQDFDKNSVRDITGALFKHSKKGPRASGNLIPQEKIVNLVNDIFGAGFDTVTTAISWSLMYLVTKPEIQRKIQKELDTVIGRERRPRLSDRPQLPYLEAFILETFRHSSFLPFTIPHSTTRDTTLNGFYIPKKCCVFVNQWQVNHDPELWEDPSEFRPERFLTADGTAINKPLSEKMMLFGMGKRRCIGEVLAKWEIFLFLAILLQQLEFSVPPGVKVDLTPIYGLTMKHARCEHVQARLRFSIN

Cytochrome P450 2C9 = Cytochrome P450 2C9 (Homo sapiens, UniProt P11712); assay: Inhibition of CYP2C9 (unknown origin) by fluorescence assay
Chain of Cytochrome P450 2C9 (P11712 whole entry): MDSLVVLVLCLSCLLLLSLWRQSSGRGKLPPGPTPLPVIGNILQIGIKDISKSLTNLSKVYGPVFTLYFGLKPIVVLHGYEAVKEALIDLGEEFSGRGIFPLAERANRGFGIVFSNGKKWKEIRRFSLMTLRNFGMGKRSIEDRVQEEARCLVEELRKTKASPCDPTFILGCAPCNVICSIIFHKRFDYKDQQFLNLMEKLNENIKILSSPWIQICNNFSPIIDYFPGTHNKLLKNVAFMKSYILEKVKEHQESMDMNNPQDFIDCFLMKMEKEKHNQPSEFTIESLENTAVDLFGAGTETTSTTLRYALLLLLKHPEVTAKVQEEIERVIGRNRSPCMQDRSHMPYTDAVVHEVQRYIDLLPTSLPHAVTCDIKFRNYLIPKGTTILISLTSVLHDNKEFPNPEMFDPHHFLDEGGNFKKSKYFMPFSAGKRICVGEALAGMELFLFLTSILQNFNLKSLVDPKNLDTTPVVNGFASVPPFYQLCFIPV

[5] = AUC in athymic CD1 nude mouse at 25 mg/kg, po by LC/MS/MS analysis; type: ADME, organism-based; parameters: dose 25 mg/kg, route oral; settings: plasma
MDA-MB-231 = assay: Growth inhibition of human MDA-MB-231 cells after 5 days by SRB assay; type: functional
Cytochrome P450 3A4 [6] = molecular target: T2, Cytochrome P450 3A4 (Homo sapiens, UniProt P08684); assay: Inhibition of CYP3A4 (unknown origin) using DBF as substrate by fluorescence assay
T2 sequence (P08684 whole entry): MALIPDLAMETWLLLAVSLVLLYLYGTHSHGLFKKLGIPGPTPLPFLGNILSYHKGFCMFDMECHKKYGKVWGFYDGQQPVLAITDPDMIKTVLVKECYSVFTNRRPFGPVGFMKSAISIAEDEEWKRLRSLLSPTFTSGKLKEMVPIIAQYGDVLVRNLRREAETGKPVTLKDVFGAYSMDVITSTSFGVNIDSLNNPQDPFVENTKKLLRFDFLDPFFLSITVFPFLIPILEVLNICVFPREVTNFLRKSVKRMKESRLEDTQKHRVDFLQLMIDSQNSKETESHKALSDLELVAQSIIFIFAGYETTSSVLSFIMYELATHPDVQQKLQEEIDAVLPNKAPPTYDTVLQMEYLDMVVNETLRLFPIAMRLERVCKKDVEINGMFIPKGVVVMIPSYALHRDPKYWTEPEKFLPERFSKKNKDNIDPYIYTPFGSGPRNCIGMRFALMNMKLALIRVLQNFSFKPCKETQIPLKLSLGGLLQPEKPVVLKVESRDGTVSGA

Cytochrome P450 3A4 [7] = molecular target: T2, Cytochrome P450 3A4; assay: Inhibition of CYP3A4 (unknown origin) using BFC as substrate by fluorescence assay
[8] = molecular target: T3, Serine/threonine-protein kinase PLK4 (Homo sapiens, UniProt O00444); assay: Inhibition of PLK4 (unknown origin) by ELISA
T3 sequence (O00444 whole entry): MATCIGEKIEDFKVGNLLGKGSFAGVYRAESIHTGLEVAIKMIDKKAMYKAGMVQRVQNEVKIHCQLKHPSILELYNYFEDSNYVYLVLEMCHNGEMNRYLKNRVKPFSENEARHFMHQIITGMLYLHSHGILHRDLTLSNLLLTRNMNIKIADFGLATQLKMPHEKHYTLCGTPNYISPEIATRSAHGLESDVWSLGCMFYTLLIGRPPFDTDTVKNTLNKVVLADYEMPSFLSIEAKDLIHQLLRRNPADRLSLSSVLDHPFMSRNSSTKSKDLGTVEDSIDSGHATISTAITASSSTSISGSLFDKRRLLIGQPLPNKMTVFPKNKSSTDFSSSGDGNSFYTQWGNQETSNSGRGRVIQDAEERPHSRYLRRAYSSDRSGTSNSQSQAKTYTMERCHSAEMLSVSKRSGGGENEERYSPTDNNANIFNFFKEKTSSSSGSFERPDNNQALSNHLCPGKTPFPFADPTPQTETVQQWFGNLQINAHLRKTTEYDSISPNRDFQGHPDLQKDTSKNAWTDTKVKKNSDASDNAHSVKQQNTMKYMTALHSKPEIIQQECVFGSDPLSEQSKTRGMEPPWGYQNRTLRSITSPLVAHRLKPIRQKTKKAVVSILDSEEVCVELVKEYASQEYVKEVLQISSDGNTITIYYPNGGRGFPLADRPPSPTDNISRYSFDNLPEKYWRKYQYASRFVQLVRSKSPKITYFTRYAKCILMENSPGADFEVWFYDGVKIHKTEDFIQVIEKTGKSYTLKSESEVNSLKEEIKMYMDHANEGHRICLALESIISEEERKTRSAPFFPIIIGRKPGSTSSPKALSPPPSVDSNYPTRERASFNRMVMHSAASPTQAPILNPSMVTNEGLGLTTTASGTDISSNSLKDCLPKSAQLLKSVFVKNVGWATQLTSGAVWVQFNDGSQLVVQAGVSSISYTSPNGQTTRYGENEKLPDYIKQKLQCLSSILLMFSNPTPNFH

[9] = Half life in dog liver microsomes; settings: liver microsomes
[10] = Half life in rat liver microsomes; settings: liver microsomes
[11] = Homo sapiens, MDA-MB-468, 120 h
[12] = Homo sapiens, MDA-MB-231, 120 h

| Cmax [2] [ng/mL] | GI50 (HCC1954; Homo sapiens, HCC1954, 120 h) [nM] | half-life ([3]; liver microsomes) [min] | half-life ([4]; liver microsomes) [min] | IC50 (Cytochrome P450 2C19) [nM] | inhibition (INH) (Cytochrome P450 2D6) | GI50 (MCF7; Homo sapiens, MCF7, 120 h) [nM] | GI50 (MDA-MB-468; [11]) [nM] | inhibition (INH) (Cytochrome P450 1A2) | IC50 (Cytochrome P450 2C9) [nM] | AUC [5] [ng·h/mL] | GI50 (MDA-MB-231; [12]) [nM] | IC50 (Cytochrome P450 3A4 [6]) [nM] | IC50 [8] [nM] | SMILES | GI50 at 120 h [1] [nM] | other results |
| --- | --- | --- | --- | --- | --- | --- | --- | --- | --- | --- | --- | --- | --- | --- | --- | --- |
| 790 | 22 | 52 | 17 | 1500 | Not Active | 34000 | 6.7 | Not Active | 900 | 1800 | 5600 |  |  | O=C1Nc2ccccc2[C@]12C[C@H]2c1ccc2c(/C=C/c3ccc(CN4CC[C@@H](F)C4)cc3)n[nH]c2c1 | 7900 |  |
| 200 | 2 | 11 | 6 | 1500 | Not Active | < 1 | < 1 | Not Active | 2000 | 380 | 2600 | 5600 |  | COc1ccc2c(c1)[C@]1(C[C@H]1c1ccc3c(/C=C/c4ccc(N5CCN(C)CC5)nc4)n[nH]c3c1)C(=O)N2 | 47000 | IC50 (Cytochrome P450 3A4 [7]): 10000 nM |
|  | 84 |  |  |  |  | 1300 | 1100 |  |  |  | 9600 |  | 20 | C[C@@H]1CN(Cc2cccc(/C=C/c3n[nH]c4cc([C@@H]5C[C@@]56C(=O)Nc5ccccc56)ccc34)c2)C[C@H](C)O1 |  |  |
| 510 | 7 |  |  | 1900 | Not Active | 1.5 | 2 | Not Active | 2600 | 1100 | 750 | > 1000 |  | CN(C)Cc1ccc(/C=C/c2n[nH]c3cc([C@@H]4C[C@@]45C(=O)N(C)c4ccccc45)ccc23)cc1 | 8000 | half-life ([3]; microsomes): 44 min; half-life ([4]; microsomes): 12 min; IC50 (Cytochrome P450 3A4 [7]): 2300 nM |
|  | 7500 |  |  |  |  | 2000 | 60 |  |  |  | 1000 |  |  | O=C1Nc2ccccc2[C@]12C[C@H]2c1ccc2c(/C=C/c3cccnc3)n[nH]c2c1 | 4400 |  |
| 700 | 5 | 27 | 7 | 1200 | Not Active | 20 | 1 | Not Active | 3800 | 1600 | 600 | 2900 | 1.3 | CN1CCN(c2ccc(/C=C/c3n[nH]c4cc([C@@H]5C[C@@]56C(=O)N(C)c5ccccc56)ccc34)cn2)CC1 |  | IC50 (Cytochrome P450 3A4 [7]): 300 nM |
|  | 1600 |  |  |  |  | 350 | 130 |  |  |  | 2200 |  |  | O=C1Nc2ccccc2[C@]12C[C@H]2c1ccc2c(/C=C/c3cccc(CN4CCOCC4)c3)n[nH]c2c1 | 50000 |  |
| 120 | 260 |  |  | 900 | Not Active | 20 | 2 | Not Active | 1700 | 340 | 23 | 2800 | 0.9 | O=C1Nc2ccccc2[C@]12C[C@H]2c1ccc2c(/C=C/c3ccc(N4CCNCC4)cc3)n[nH]c2c1 | 21000 | half-life ([3]; microsomes): 46 min; half-life ([4]; microsomes): 19 min |
|  |  |  |  |  |  |  |  |  |  |  |  |  |  | COc1ccc2c(c1)[C@]1(C[C@H]1c1ccc3c(/C=C/c4ccc(CN5CCOCC5)cc4)n[nH]c3c1)C(=O)N2 (racemic) |  | GI50 (HCC1954): 7300 nM; GI50 (MCF7): 10 nM; GI50 (MDA-MB-468): 6 nM; GI50 (MDA-MB-231): 14000 nM |
| 1300 | 2300 | > 60 | 38 | 810 | Not Active | 2500 | 10 | Not Active | 560 | 2200 | 2200 | 1600 | 0.39 | COc1ccc2c(c1)[C@]1(C[C@H]1c1ccc3c(/C=C/c4ccc(CN5[C@H](C)CN(C)C[C@@H]5C)cc4)n[nH]c3c1)C(=O)N2 |  | half-life [9]: 39 min; IC50 (Cytochrome P450 3A4 [7]): 10000 nM; half-life [10]: 49 min |
|  | 1300 |  |  |  |  | 2500 | 10 |  |  |  | 500 |  | 0.64 | C[C@@H]1CN(Cc2ccc(/C=C/c3n[nH]c4cc([C@@H]5C[C@@]56C(=O)Nc5ccccc56)ccc34)cc2)C[C@H](C)N1C |  |  |
|  | 5000 |  |  |  |  | < 1 | < 1 |  |  |  | 2200 |  |  | O=C1Nc2ccccc2[C@]12C[C@H]2c1ccc2c(/C=C/c3ccc(CN4CCCCC4)cc3)n[nH]c2c1 | 20000 |  |
| 510 | 5000 | 49 | 40 | 1400 | Not Active | < 1 | < 1 | Not Active | 3400 | 1300 | 1600 | 5400 |  | COc1ccc2c(c1)[C@]1(C[C@H]1c1ccc3c(/C=C/c4ccc(CN5CCCCC5)cc4)n[nH]c3c1)C(=O)N2 | 50000 | IC50 (Cytochrome P450 3A4 [7]): > 1000 nM |
| 300 | 5000 | 36 | 22 | 2000 | Not Active | 0.1 | < 1 | Not Active | 3500 | 640 | 2800 | 7500 |  | COc1ccc2c(c1)[C@]1(C[C@H]1c1ccc3c(/C=C/c4ccc(CN(C)C)cc4)n[nH]c3c1)C(=O)N2 | 41000 |  |
|  | 1800 |  |  |  |  | 1000 | 2 |  |  |  | 3000 |  |  | O=C1Nc2ccccc2[C@]12C[C@H]2c1ccc2c(/C=C/c3ccc(CN4CCCOCC4)cc3)n[nH]c2c1 |  |  |
|  | 1900 |  |  |  |  |  |  |  |  |  |  |  |  | CN(C)Cc1ccc(/C=C/c2n[nH]c3cc([C@@H]4C[C@@]45C(=O)Nc4ccccc45)ccc23)cc1 (racemic) | 28000 | GI50 (MDA-MB-231): 12000 nM |
|  | 770 |  |  |  |  | 2400 | 2 |  |  |  | 920 |  |  | CN1CCC(Oc2ccc(/C=C/c3n[nH]c4cc([C@@H]5C[C@@]56C(=O)Nc5ccccc56)ccc34)cc2)CC1 |  |  |
|  | 26 |  |  |  |  | 370 | < 1 |  |  |  | 250 |  |  | O=C1Nc2ccccc2[C@]12C[C@H]2c1ccc2c(/C=C/c3ccc(CN4CCCC4)cc3)n[nH]c2c1 | 3600 |  |
|  | 53 |  |  |  |  | 170 | 61 |  |  |  | 4100 |  | 5.2 | O=C1Nc2ccccc2[C@]12C[C@H]2c1ccc2c(/C=C/c3ccc(CN4CC5CCC(C4)O5)cc3)n[nH]c2c1 |  |  |
